According to patent US20250122253A1, “REGULATING MICROTUBULE DYNAMICS AS A THERAPEUTIC TARGET FOR NERVE REPAIR” (City University of Hong Kong, priority 2023, published 2025):

Columns and labels:
[1] = test system: spinal neurons; conditions: background statement; paclitaxel in rats; cited from earlier work
[2] = test system: tubulin; conditions: epothilone B: cultured rat cortical neurons; cited from earlier work
[3] = chronic exposure, high doses in animals; cited from earlier work
[4] = test system: regenerating sensory axons of the injured sciatic nerve; assay: Sciatic nerve pinch test after sciatic nerve crush injury; assay type: in vivo, mice; conditions: AAV2/9-Fmn2-shRNA mice; 3 days after sciatic nerve injury; LMK-235 20 mg/kg intraperitoneally 3 consecutive days
Description: Sciatic nerve crush or transection injury was performed in anesthetized adult male C57BL/6 or Fmn2^−/− mice (8-12 weeks old) as previously described. Briefly, the left sciatic nerve was exposed at mid-thigh level. For crush injury, the exposed nerve was crushed with smooth forceps (Dumont #5/45 Forceps, Fine Science Tools) at the sciatic notch for 15 seconds. For sciatic nerve transection, an epineural suture was first made at the level of external rotator muscle, just distal to the sciatic notch. The exposed nerve was then transected using a pair of ophthalmic microscissors just distal to the suture. After injury, the overlying muscle and skin were sutured using a 5-0 suture (Ethilon), and the mice were allowed to recover on a heated pad, and returned to their home cages after recovery. The surgeon was blinded to the genotypes and treatments.
For in vivo gene silencing of Fmn2 and/or Hdac5 in DRGs, AAV2/9-Fmn2-shRNA and AAV2/9-Hdac5-shRNA at a titer of 5×10^12 vg/mL (OBIO Technology) were injected into the sciatic nerve directly through a glass micropipette using a microinjector (Harvard Apparatus) two weeks before sciatic nerve crush injury. The mice were then subjected to sciatic nerve crush injury and sciatic nerve pinch test (FIG. 4) and animal behavioural assessment (FIG. 15). The expression of shRNAs was under the control of the U6 promoter, and the expression of the reporter gene eGFP was under the control of the CAG promoter. AAV2/9-scr-shRNA (Packgene) was used as a negative control (see FIG. 22 for the shRNA sequences). On a separate batch of animals, the knockdown efficiency in DRGs was assessed by Western blot analysis in AAV2-Fmn2-shRNA and AAV2-Hdac5-shRNA mice two weeks after the AAV injection (FIGS. S8B and S9). […]
Sciatic nerve pinch test was performed in the ipsilateral side 3 days after sciatic nerve crush injury. […] The distance (in mm) representing the length of axonal regrowth was recorded from the crushed site to the most distal point of sciatic nerve whereas initial withdrawal reflex was observed after pinching. […]

[5] = test system: pHDAC5; assay: Western blot of pHDAC5 in sciatic nerve segments 0-6 mm distal to the crush site; assay type: in vivo, mice; conditions: AAV2/9-Fmn2-shRNA mice; 3 days after injury
Description: (§1) Ipsilateral L4/5 DRG neurons were harvested at various time points following sciatic nerve injury as indicated. Sciatic nerves were harvested 3 days after crush injury and segmented into 0-6 mm distal to the crush site. Each protein sample was pooled from 3 mice. DRG neurons and segmented sciatic nerves were mechanically dissociated with protein lysis buffer, and subjected to measurement of protein concentration using protein BCA assay (Pierce). Protein lysate (30 μg) was separated on 4-12% NuPAGE Tris-Glycine precast gel (Invitrogen). Protein was then transferred onto a PVDF membrane (Bio-Rad) and blocked with 5% non-fat milk (Bio-Rad) in TBS-T. The membrane was incubated with anti-FMN2 (1:500; ProteinTech), anti-phosphorylated HDAC5 (1:500, ThermoFisher), anti-HDAC5 (1:500, Novus Biologicals), anti-acetylated tubulin (1:10,000; Sigma-Aldrich), anti-NeuN (1:500; Millipore), anti-SOX10 (1:500; Abcam), anti-IBA-1 (1:1,000; Wako), anti-GFP (1:1,000; Cell Signaling), and anti-GAPDH antibodies (1:2,000; ProteinTech) as loading controls. The membrane was incubated with secondary antibody conjugated with horseradish peroxidase (1:2,000; Thermo-Fisher). Signals were detected using West Femto Maximum Sensitivity Substrate Kit (Thermo Scientific). […] Band intensities were measured using Image Lab software (Bio-Rad). […]

[6] = test system: acetylated tubulin; assay: Western blot of acetylated tubulin/total tubulin in sciatic nerve segments 0-6 mm distal to the crush site; assay type: in vivo, mice; conditions: AAV2/9-Fmn2-shRNA mice; 3 days after injury
Description: as §1

[7] = test system: damaged axons; conditions: background statement; cited from earlier work

C/C(=C\c1csc(C)n1)[C@@H]1C[C@@H]2O[C@]2(C)CCC[C@H](C)[C@H](O)[C@@H](C)C(=O)C(C)(C)[C@@H](O)CC(=O)O1 [Epothilone B]
axon regeneration after spinal cord injury [1]: promoted in vivo axon regeneration
tubulin polymerization at growing tips / growth cones [2]: induced rapid tubulin polymerization
peripheral neuropathy [3]: cause chemotherapy-induced peripheral neuropathy

Cc1cc(C)cc(C(=O)NOCCCCCC(=O)NO)c1 [LMK-235]
effect on the axon regrowth-promoting effect in AAV2/9-Fmn2-shRNA mice [4]: completely eliminated the axon regrowth-promoting effect
reduction of pHDAC5 protein expression in AAV2/9-Fmn2-shRNA mice [5]: 70%
acetylated tubulin expression in sciatic nerves of AAV2/9-Fmn2-shRNA mice [6]: increased acetylated tubulin expression

CC(=O)O[C@H]1C(=O)[C@@]2(C)[C@H]([C@H](OC(=O)c3ccccc3)[C@]3(O)C[C@H](OC(=O)[C@H](O)[C@@H](NC(=O)c4ccccc4)c4ccccc4)C(C)=C1C3(C)C)[C@]1(OC(C)=O)CO[C@@H]1C[C@@H]2O [paclitaxel]
axon regeneration after spinal cord injury [1]: facilitated in vivo axon regeneration
tubulin polymerization at growing tips / growth cones [2]: induced active tubulin polymerization

O=C(CCCCCN1C(=O)c2cccc3cccc(c23)C1=O)NO [scriptaid]
axonal regrowth after PNI [7]: markedly stalled axonal regrowth
